Experimental data published in US20180186742A1, “PICOLINAMIDES AS FUNGICIDES” (Dow AgroSciences LLC, priority 2017, published 2018).
Like-named read-outs stand apart in the source and are kept apart here.

How the values were obtained:
Format in all cases: in vivo
[1] = test system: Magnaporthe grisea; Anamorph: Pyricularia oryzae; test: whole plant or invertebrate; conditions: 24 h, read-out: PYRIOR Disease Control
[2] = test system: Rhyncosporium secalis; test: Barley scald (RHYNSE), disease control on barley seedlings; conditions: Hordeum vulgare, 24 h, 1DP (1 Day Protectant) test at 100 ppm
Experimental: Technical grades of materials were dissolved in acetone, which were then mixed with nine volumes of water containing 110 ppm Triton X-100. The fungicide solutions were applied onto wheat seedlings using an automated booth sprayer to run-off. All sprayed plants were allowed to air dry prior to further handling. All fungicides were evaluated using the aforementioned method for their activity vs. all target diseases, unless stated otherwise. Wheat leaf blotch and brown rust activity were also evaluated using track spray applications, in which case the fungicides were formulated as EC formulations, containing 0.1% Trycol 5941 in the spray solutions. Barley seedlings (variety Harrington) were propagated in soil-less Metro mix, with each pot having 8 to 12 plants, and used in the test when first leaf was fully emerged. Test plants were inoculated by an aqueous spore suspension of Rhyncosporium secalis 24 hr after fungicide treatments. After inoculation the plants were kept in a dew room at 20° C. with 100% relative humidity for 48 hr. The plants were then transferred to a greenhouse set at 20° C. for disease to develop. Fungicide formulation, application and disease assessment on the sprayed leaves followed the procedures as described in the Example A.

[3] = test system: Glomerella lagenarium; Anamorph: Colletotrichum lagenarium; test: Cucumber anthracnose (COLLLA), disease control on cucumber seedlings; conditions: Colletotrichum orbiculare, 1DP test at 100 ppm, read-out: COLLLA disease control rating
Experimental: Technical grades of materials were dissolved in acetone, which were then mixed with nine volumes of water containing 110 ppm Triton X-100. The fungicide solutions were applied onto wheat seedlings using an automated booth sprayer to run-off. All sprayed plants were allowed to air dry prior to further handling. All fungicides were evaluated using the aforementioned method for their activity vs. all target diseases, unless stated otherwise. Wheat leaf blotch and brown rust activity were also evaluated using track spray applications, in which case the fungicides were formulated as EC formulations, containing 0.1% Trycol 5941 in the spray solutions. Cucumber seedlings (variety Bush Pickle) were propagated in soil-less Metro mix, with each pot having one plant, and used in the test when 12 to 14 days old. Test plants were inoculated with an aqueous spore suspension of Colletotrichum lagenarium 24 hr after fungicide treatments. After inoculation the plants were kept in a dew room at 22° C. with 100% relative humidity for 48 hr to permit spores to germinate and infect the leaf. The plants were then transferred to a growth room set at 22° C. for disease to develop. Fungicide formulation, application and disease assessment on the sprayed leaves followed the procedures as described in the Example A.

[4] = test system: Puccinia triticina; test: Wheat brown rust (PUCCRT), disease control on wheat seedlings; conditions: low volume application at 121.5 g/H
Outline: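 Compounds in acetone, diluted with nine volumes of water containing 110 ppm Triton X-100, sprayed to run-off on first-leaf Yuma wheat seedlings; track-spray tests used EC formulations with 0.1% Trycol 5941. Puccinia triticina spores applied before or after treatment. Overnight dark dew room at 22° C, 100% humidity, then greenhouse at 24° C.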

[5] = test system: Parastagonospora nodorum; test: Wheat glume blotch (LEPTNO), disease control on wheat seedlings; conditions: 1DP test at 100 ppm, read-out: LEPTNO disease control rating
Experimental: Technical grades of materials were dissolved in acetone, which were then mixed with nine volumes of water containing 110 ppm Triton X-100. The fungicide solutions were applied onto wheat seedlings using an automated booth sprayer to run-off. All sprayed plants were allowed to air dry prior to further handling. All fungicides were evaluated using the aforementioned method for their activity vs. all target diseases, unless stated otherwise. Wheat leaf blotch and brown rust activity were also evaluated using track spray applications, in which case the fungicides were formulated as EC formulations, containing 0.1% Trycol 5941 in the spray solutions. Wheat plants (variety Yuma) were grown from seed in a greenhouse in 50% mineral soil/50% soil-less Metro mix until the first leaf was fully emerged, with 7-10 seedlings per pot. These plants were inoculated with an aqueous spore suspension of Parastagonospora nodorum 24 hr after fungicide treatments. After inoculation the plants were kept in 100% relative humidity (one day in a dark dew chamber followed by two days in a lighted dew chamber at 20° C.) to permit spores to germinate and infect the leaf. The plants were then transferred to a greenhouse set at 20° C. for disease to develop. Fungicide formulation, application and disease assessment followed the procedures as described in the Example A.

[6] = test system: Phakopsora pachyrhizi; test: Asian soybean rust (PHAKPA), disease control on soybean seedlings; conditions: High volume application at 25 ppm
Outline: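 Two-week-old Williams 82 soybean seedlings were sprayed to run-off with compound in acetone/water (1:9) containing 0.011% Tween 20. Inoculation was 3 days before (curative) or 1 day after (protectant) treatment, followed by 24 h dark dew at 22 °C, 100% RH, then 23 °C; disease severity scored on sprayed leaves.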

[7] = 24 h, 1 Day Protectant, read-out: PUCCRT disease control, 1DP, LV activity
[8] = 72 h, 3 Day Curative, read-out: PUCCRT disease control, 3DC, LV activity
[9] = 24 h, 1 Day Protectant, read-out: PHAKPA 1DP disease control rating
[10] = 72 h, 3 Day Curative, read-out: PHAKPA 3DC disease control rating

COc1ccnc(C(=S)N[C@@H](C)C(=O)O[C@@H](C)[C@H](c2ccc(F)cc2C)C(C)C)c1OC(C)=O [Compound 219]
> 80%: pest or weed control at 100 ppm [1] | pest or weed control at 121.5 g/ha [4, 7] | pest or weed control at 121.5 g/ha [4, 8] | pest or weed control at 100 ppm [5] | pest or weed control at 25 ppm [6, 9] | pest or weed control at 25 ppm [6, 10]
< 80%: pest or weed control at 100 ppm [2] | pest or weed control at 100 ppm [3]

CCC(=O)Oc1c(OC)ccnc1C(=O)N[C@@H](C)C(=O)O[C@@H](C)[C@H](c1ccc(F)cc1C)C(C)C [Compound 357]
> 80%: pest or weed control at 100 ppm [3] | pest or weed control at 121.5 g/ha [4, 7] | pest or weed control at 121.5 g/ha [4, 8] | pest or weed control at 100 ppm [5] | pest or weed control at 25 ppm [6, 9] | pest or weed control at 25 ppm [6, 10]
< 80%: pest or weed control at 100 ppm [1] | pest or weed control at 100 ppm [2]

COc1ccnc(C(=O)N[C@@H](C)C(=O)O[C@@H](C)[C@H](c2ccc(F)cc2C)C(C)C)c1OC(=O)C(C)C [Compound 216]
< 80%: pest or weed control at 100 ppm [2] | pest or weed control at 100 ppm [3]
> 80%: pest or weed control at 100 ppm [1] | pest or weed control at 121.5 g/ha [4, 7] | pest or weed control at 121.5 g/ha [4, 8] | pest or weed control at 100 ppm [5] | pest or weed control at 25 ppm [6, 9] | pest or weed control at 25 ppm [6, 10]

COCCC(=O)Oc1c(OC)ccnc1C(=O)N[C@@H](C)C(=O)O[C@@H](C)[C@H](c1ccc(F)cc1C)C(C)C [Compound 220]
> 80%: pest or weed control at 100 ppm [1] | pest or weed control at 121.5 g/ha [4, 7] | pest or weed control at 121.5 g/ha [4, 8] | pest or weed control at 100 ppm [5] | pest or weed control at 25 ppm [6, 9] | pest or weed control at 25 ppm [6, 10]
< 80%: pest or weed control at 100 ppm [2] | pest or weed control at 100 ppm [3]

COc1ccnc(C(=O)N[C@@H](C)C(=O)O[C@@H](C)[C@H](c2cccc(C)c2C)C(C)C)c1OC(C)=O [Compound 363]
> 80%: pest or weed control at 100 ppm [1] | pest or weed control at 121.5 g/ha [4, 7] | pest or weed control at 121.5 g/ha [4, 8] | pest or weed control at 25 ppm [6, 9] | pest or weed control at 25 ppm [6, 10]
< 80%: pest or weed control at 100 ppm [2] | pest or weed control at 100 ppm [3] | pest or weed control at 100 ppm [5]

COc1ccnc(C(=O)N[C@@H](C)C(=O)O[C@@H](C)[C@H](c2ccc(F)cc2C)C(C)C)c1OC(=O)OC(C)C [Compound 373]
> 80%: pest or weed control at 100 ppm [3] | pest or weed control at 121.5 g/ha ([4]; 24 h, 1 Day Protectant, wheat brown rust, read-out: PUCCRT 1DP disease control, LV activity) | pest or weed control at 100 ppm [5] | pest or weed control at 25 ppm [6, 9] | pest or weed control at 25 ppm [6, 10]
< 80%: pest or weed control at 100 ppm [1] | pest or weed control at 100 ppm [2] | pest or weed control at 121.5 g/ha ([4]; 72 h, 3 Day Curative, wheat brown rust, read-out: PUCCRT 3DC disease control, LV activity)

CCC(CC)[C@@H](c1ccc(F)cc1C)[C@H](C)OC(=O)[C@H](C)NC(=O)c1nccc(OC)c1OC(C)=O [Compound 187]
> 80%: pest or weed control at 100 ppm [1] | pest or weed control at 100 ppm [2] | pest or weed control at 100 ppm [3] | pest or weed control at 121.5 g/ha [4, 7] | pest or weed control at 25 ppm [6, 9]
< 80%: pest or weed control at 121.5 g/ha [4, 8] | pest or weed control at 100 ppm [5] | pest or weed control at 25 ppm [6, 10]

CCOC(=O)Oc1c(OC)ccnc1C(=O)N(C(=O)OCC)[C@@H](C)C(=O)O[C@@H](C)[C@H](c1ccc(F)cc1C)C(C)C [Compound 371]
< 80%: pest or weed control at 100 ppm [1] | pest or weed control at 100 ppm [2]
> 80%: pest or weed control at 100 ppm [3] | pest or weed control at 100 ppm [5] | pest or weed control at 25 ppm [6, 9] | pest or weed control at 25 ppm [6, 10]
